Experimental data taken from article PMC7274485, “A symbiotic bacterium of shipworms produces a compound with broad spectrum anti-apicomplexan activity” (PLoS Pathogens, 2020).
Entries after “also recorded” stand apart in the source; their conditions may differ. Where two headings read alike, the source gives them in different places.

How the values were obtained:
[1] = system: Cryptosporidium parvum; test: Nanoluciferase-expressing C. parvum inhibitor response assay in HCT-8 cells; assay type: cell-based; details: HCT-8 cells infected 24 hours, read 48 hours post-treatment, read-out: EC50 against C. parvum
Method: We had postulated that secondary metabolites generated by symbiotic bacteria of invertebrates might include compounds that target gregarines, an ancient group of apicomplexans found in most, and perhaps all, invertebrates. The only gregarines known to infect mammals are Cryptosporidium species, gastrointestinal parasites that cause diarrheal disease in humans and other mammals. HCT8 cells were infected with luciferase-expressing Cryptosporidium parvum parasites for 24 hours, then two-fold dilutions of trtE added to the infected cells. 48 hours after the addition of trtE, parasite growth was quantified by luciferase expression. […] To examine the morphology of trtE treated C. parvum parasites, HCT8 cells were infected with C. parvum oocysts for 8 hours. Extracellular parasites were washed off and medium containing 60 nM trtE added to the infected cells. After 12 hours of treatment, infected cells were fixed and processed for IFAs.
C. parvum oocysts expressing nanoluciferase (nLuc) were obtained from the Cryptosporidium Production Laboratory at the University of Arizona and inhibitor response assays were conducted as previously described.

[2] = system: Plasmodium falciparum; test: P. falciparum-infected erythrocyte proliferation, SYBR green incorporation; assay type: cell-based; details: Plasmodium falciparum, Erythrocyte
From the text: The maintenance of Plasmodium falciparum cultures and conducting of in vitro inhibitor response assays have been previously described.

[3] = system: Theileria equi; test: Theileria equi 72 hr in vitro parasite growth inhibition assay; assay type: cell-based
Method: The effect of trtE on proliferation of T. equi was evaluated in a 72 hr in vitro parasite growth inhibition assay performed as previously described using the USDA Florida strain of T. equi.
A. Bovine turbinate cells infected with luciferase expressing Sarcocystis neurona merozoites were treated with trtE for 24 hours and parasite growth evaluated by luciferase expression. […] B. Theileria equi-infected erythrocytes were incubated with trtE or DMSO vehicle control and proliferation was measured after 72 hours by SYBR green incorporation. Percent proliferation was calculated relative to DMSO treated controls. […] (DOCX) Click here for additional data file.

[4] = system: C. parvum; test: Immunofluorescence assay (anti-gp15) of C. parvum-infected HCT8 cells; assay type: cell-based, Cryptosporidium parvum; details: 60 nM trtE, 12 hours, HCT8 cells infected 8 hours
Method: We had postulated that secondary metabolites generated by symbiotic bacteria of invertebrates might include compounds that target gregarines, an ancient group of apicomplexans found in most, and perhaps all, invertebrates. The only gregarines known to infect mammals are Cryptosporidium species, gastrointestinal parasites that cause diarrheal disease in humans and other mammals. HCT8 cells were infected with luciferase-expressing Cryptosporidium parvum parasites for 24 hours, then two-fold dilutions of trtE added to the infected cells. 48 hours after the addition of trtE, parasite growth was quantified by luciferase expression. […]
For all IFAs, the investigator reading the slides and collecting images was blind to the sample treatment. […] 24 hours post treatment, infected cells were fixed with methanol, and parasites detected with rabbit anti-SAG1 antibody for T. gondii or rabbit anti-gp15 for C. parvum as we have described previously. […] This CE11 line is transiently transfected with a plasmid that expresses nanoluciferase from a B. divergens promoter and green fluorescence protein-blasticidin (gfp-bsd) from the selection cassette. […] Mean background levels were determined for individual images by assaying areas lacking cells, and the values were subtracted, whereas maximum fluorescent values were individually set as the upper limit. […]

[5] = system: B. bovis; test: Immunofluorescence assay of B. bovis CE11/p2xHA-glmS-gfp-bsd infected erythrocytes; assay type: cell-based, Babesia bovis; details: 50 nM trtE, 24 hours
Method: To evaluate the morphological changes in one of the intraerythrocytic parasites, B. bovis CE11/p2xHA-glmS-gfp-bsd parasites were exposed to 50 nM trtE or DMSO for 24 hours then fixed and processed for IFA. This B. bovis line expresses a soluble green fluorescent protein-blasticidin deaminase fusion protein (gfp-bsd),that was labeled with anti-GFP antibodies to visualize the parasite cytoplasm (Fig 3E, green fluorescence). […] Mis-localization of both the soluble gfp-bsd fusion protein (green label) and the RAP-1 protein (red label) was also observed. […]
For all IFAs, the investigator reading the slides and collecting images was blind to the sample treatment. […] 24 hours post treatment, infected cells were fixed with methanol, and parasites detected with rabbit anti-SAG1 antibody for T. gondii or rabbit anti-gp15 for C. parvum as we have described previously. […] This CE11 line is transiently transfected with a plasmid that expresses nanoluciferase from a B. divergens promoter and green fluorescence protein-blasticidin (gfp-bsd) from the selection cassette. […] Cells were incubated with rabbit anti-GFP (GenScript; Piscataway, NJ; cat. #A01388) and mouse monoclonal MBOC79B1 (a gift from G. Palmer) anti-BbRAP-1 protein antibodies, and reactions detected with goat anti-rabbit IgG-Alexafluor 488 and goat anti-mouse IgG-Alexafluor 594 antibodies (Invitrogen; Carlsbad, CA). […]

[6] = Pilot pharmacokinetic study in lambs; assay type: in vivo
From the text: A full PK/PD study of trtE in mice and lambs has recently been funded, so in the near future we will be able to answer these questions.

[7] = system: HCT-8 colonic cancer cells
Method: Toxicity was evaluated by measuring cellular ATP concentrations.
HCT8, HFF and BT cells were seeded in 96-well plates to achieve 20–30% confluence after 24 hours of growth.

With CC1CCC=CC=CCCC(O)CC(=O)CC2CCC(C)C3(O2)O[B-]24OC(C(=O)O1)C1(OC(CCC1C)CC(=O)CC(O)CCC=CC=CCCC(C)OC(=O)C3O2)O4 (centres unmarked) [trtE, tartrolon E] as the compound, how does the EC50 [1] read?
Its EC50 is 3.85 nM.

And the EC50 ([2]; Table 1, rounded, read-out: EC50 against P. falciparum (Table 1))?
Its EC50 is 0.1 nM.

What about the EC50 ([2]; infected erythrocytes, 72 hours, read-out: EC50 against P. falciparum) of the same compound?
Its EC50 is 0.105 nM.

And the EC50 ([3]; Erythrocyte, infected erythrocytes, 72 hours, read-out: EC50 against T. equi)?
Its EC50 is 0.391 nM.

What about the EC50 ([3]; Table 1, rounded, read-out: EC50 against T. equi (Table 1)) of the same compound?
Its EC50 is 0.4 nM.

What about the “Morphology of trtE treated C. parvum (IFA)” value [4] of the same compound?
Its value is “no visible intact merozoites; also recorded: few discernable parasites”.

And the “Morphology of trtE treated B. bovis (IFA)” value [5]?
The value was “distinctly rounded morphology”.

What about the “Absorption from the intestine” value ([6]; in vivo) of the same compound?
Its value is “rapidly absorbed from the intestine”.

What about the Tolerability in lambs ([6]; pilot study, lambs) of the same compound?
The Tolerability in lambs was “tolerated by the animals”.

What about the “TC50 (median toxic concentration) for HCT-8” value ([7]; 20–30% confluency, 24 hours, cellular ATP) of the same compound?
The value was 6.3 µM.

And the “Selectivity Index, C. parvum vs HCT-8” value ([7]; TC50/EC50)?
The value was 1636.
